Measurements taken from US10898548B2, “Modulators of protein tyrosine phosphatase and uses thereof” (LEUVAS THERAPEUTICS, priority 2015, dated 2021).
Where two headings read alike, the source gives them in different places.

Tests used:
[1] = tested on: Hbb^th3/+ mice (β-thalassemia model)
[2] = tested on: protein tyrosine phosphorylation in fMLP-stimulated monocytes; experiment: Kinexus antibody microarray of tyrosine phosphorylation in fMLP-stimulated monocytes; assay type: cell-based, human; design: key to Functional effect of P1-WD on BTK / Functional effect of P1-WD on CDK2 / Functional effect of P1-WD on CTTN / Functional effect of P1-WD on DAB1 / Functional effect of P1-WD on DOK2 / Functional effect of P1-WD on ERBB2 / Functional effect of P1-WD on GRIN2B / Functional effect of P1-WD on ITGB1 / Functional effect of P1-WD on JAK2 / Functional effect of P1-WD on KDR / Functional effect of P1-WD on KIT / Functional effect of P1-WD on LIMK1 / Functional effect of P1-WD on MET / Functional effect of P1-WD on PDGFRA / Functional effect of P1-WD on PDGFRB / Functional effect of P1-WD on PRKCD / Functional effect of P1-WD on SHC1 / Functional effect of P1-WD on STAT1 / Functional effect of P1-WD on STAT2 / Functional effect of P1-WD on STAT3 / Functional effect of P1-WD on STAT5A / Functional effect of P1-WD on VCL / Functional effect of P1-WD on ABL1 / Functional effect of P1-WD on BLNK / Functional effect of P1-WD on BMX: inhibition (IN); activation (ACT)
Excerpt: To identify PTPRG targets in the context of fMLP signaling, we employed a high throughput antibody array technology using the P1-WD approach and fMLP-potentiated signaling networks, since this directly correlates with integrin triggering and mediated rapid adhesion. To analyze the phosphoproteome we used the comprehensive high throughput service developed by Kinexus, CA, USA. The Kinexus antibody microarray includes about 500 pan-specific and over 350 phosphosite-specific antibodies per chip, in duplicate spots. The analysis covers a variety of selected cell signaling proteins regulating cell proliferation, stress, apoptosis, adhesion, secretion, motility and other biological processes. Monocytes were treated with 50 μM P1 or P1-WD peptides for 60 min. at 37° C. and then stimulated with 50 nM fMLP for 3 min. Cells were immediately lysed according to Kinexus protocol and the samples were sent to Kinexus for microarray analysis. Data were normalized to control cells and statistically filtered by Kinexus to identify the most significant best hits. The analysis was, then, focused on phosphotyrosine-specific antibodies. Network inference analysis was performed within Cytoscape 3.1 bioinformatics environment by using previously established interatomic datasets compiled from public data-bases. The compiled protein-protein interatomic data-set was manually curated to remove self-loops and duplicate edges; different protein IDs were normalized to HGNC standard IDs. The set of 31 identified proteins whose tyrosine phosphorylation status was affected by PTPRG activity was used as bioinformatics probe allowing sub-network reconstruction. Directed node centrality indexes were computed with the Cytoscape plug-in Centiscape 2.1 (Scardoni G, et al., 2009, Bioinformatics 25: 2857-2859). Network modular decomposition was executed with the Cytoscape plug-in MCODE (Bader G, et al., 2003, BMC Bioinformatics 4: 2). Literature data mining was performed by multiple data base interrogation, mainly based on Phosphosite, PhosphoELM, PhosphoNet and KEA.
Data analysis identified 31 molecules whose phosphorylation was modified in a statistically significant manner (Table 9). Values in % columns are percentage increase or decrease of protein tyrosine phosphorylation upon fMLP-triggering in P1-WD-treated vs P1-control treated monocytes. For some proteins (For some proteins (EGFR, INSR, KDR, KIT, PDGFRA, PTK2, PXN, SRC and ZAP70) multiple phosphotyrosine residues are detected. From left to right, columns are HGNC protein symbols (in alphabetic order), phosphosites (p-Sites), changes of phosphorylation (induced by P1-WD) and the putative functional effect, inferred from literature data-mining. EGFR and PTK2 are highlighted in gray since the functional effect could not be unambiguously inferred. The functional effect of P1-WD in the far right column indicates either inhibition (IN) or activation (ACT).

[3] = P1-WD vs P1, 50 μM 60 min, 50 nM fMLP 3 min
[4] = putative, inferred from literature data-mining
[5] = putative, inferred from literature data-mining, per p-Site

TAT-ICD: fusion recombinant protein SEQ ID 5: PTPRG intracellular domain aa 797-1445 fused to 13 aa TAT sequence
red cell morphology ([1]; Hbb^th3/+ mice): ameliorated red cell morphological abnormalities
red cell morphology ([1]; mouse, in vivo): without any changes

P1-WD: fusion Trojan peptide SEQ ID 3: Penetratin, glycine, PTPRG wedge domain aa 831-856; RQIKIWFQNRRMKWKKGKQFVKHIGELYSNNQHGFSEDFEEVQ (listed as Homo sapiens)
change of ABL1 Y412 tyrosine phosphorylation [2, 3]: −40%
change of BLNK Y84 tyrosine phosphorylation [2, 3]: 19%
change of BMX Y40 tyrosine phosphorylation [2, 3]: −7%
change of BTK Y223 tyrosine phosphorylation [2, 3]: −58%
change of CDK2 Y15 tyrosine phosphorylation [2, 3]: 282%
change of CTTN Y470 tyrosine phosphorylation [2, 3]: 21%
change of DAB1 Y198 tyrosine phosphorylation [2, 3]: −34%
change of DOK2 Y142 tyrosine phosphorylation [2, 3]: 9%
change of EGFR Y1068 tyrosine phosphorylation [2, 3]: −13%
change of EGFR Y1148 tyrosine phosphorylation [2, 3]: −16%
change of EGFR Y1173 tyrosine phosphorylation [2, 3]: 68%
change of ERBB2 Y1248 tyrosine phosphorylation [2, 3]: 34%
change of GRIN2B Y1474 tyrosine phosphorylation [2, 3]: 29%
change of INSR Y999 tyrosine phosphorylation [2, 3]: 58%
change of INSR Y1189/Y1190 tyrosine phosphorylation [2, 3]: 27%
change of ITGB1 Y783 tyrosine phosphorylation [2, 3]: −11%
change of JAK2 Y1007/Y1008 tyrosine phosphorylation [2, 3]: −33%
change of KDR Y1054 + Y1059 tyrosine phosphorylation [2, 3]: 22%
change of KDR Y1054 tyrosine phosphorylation [2, 3]: −37%
change of KIT Y703 tyrosine phosphorylation [2, 3]: −60%
change of KIT Y730 tyrosine phosphorylation [2, 3]: −47%
change of LIMK1 Y507 tyrosine phosphorylation [2, 3]: −10%
change of MET Y1003 tyrosine phosphorylation [2, 3]: −47%
change of PDGFRA Y742 tyrosine phosphorylation [2, 3]: 133%
change of PDGFRA Y754 tyrosine phosphorylation [2, 3]: 86%
change of PDGFRB Y716 tyrosine phosphorylation [2, 3]: −36%
change of PRKCD Y313 tyrosine phosphorylation [2, 3]: 189%
change of PTK2 Y397 tyrosine phosphorylation [2, 3]: 30%
change of PTK2 Y576 tyrosine phosphorylation [2, 3]: 65%
change of PTK2 Y577 tyrosine phosphorylation [2, 3]: −60%
change of PTK2 Y861 tyrosine phosphorylation [2, 3]: −11%
change of PXN Y31 tyrosine phosphorylation [2, 3]: 19%
change of PXN Y118 tyrosine phosphorylation [2, 3]: 144%
change of SHC1 Y349 + Y350 tyrosine phosphorylation [2, 3]: −10%
change of SRC Y419 tyrosine phosphorylation [2, 3]: −6%
change of SRC Y530 tyrosine phosphorylation [2, 3]: 94%
change of STAT1 Y701 tyrosine phosphorylation [2, 3]: 38%
change of STAT2 Y690 tyrosine phosphorylation [2, 3]: 61%
change of STAT3 Y705 tyrosine phosphorylation [2, 3]: 182%
change of STAT5A Y694 tyrosine phosphorylation [2, 3]: 50%
change of VCL Y821 tyrosine phosphorylation [2, 3]: −20%
change of ZAP70 Y292 tyrosine phosphorylation [2, 3]: −46%
change of ZAP70 Y315 + Y319 tyrosine phosphorylation [2, 3]: 12%
Functional effect of P1-WD on ABL1 [2, 4]: IN
Functional effect of P1-WD on BLNK [2, 4]: ACT
Functional effect of P1-WD on BMX [2, 4]: IN
Functional effect of P1-WD on BTK [2, 4]: IN
Functional effect of P1-WD on CDK2 [2, 4]: IN
Functional effect of P1-WD on CTTN [2, 4]: IN
Functional effect of P1-WD on DAB1 [2, 4]: IN
Functional effect of P1-WD on DOK2 [2, 4]: ACT
Functional effect of P1-WD on ERBB2 [2, 4]: ACT
Functional effect of P1-WD on GRIN2B [2, 4]: ACT
Functional effect of P1-WD on ITGB1 [2, 4]: IN
Functional effect of P1-WD on JAK2 [2, 4]: IN
Functional effect of P1-WD on KDR [2, 4]: IN
Functional effect of P1-WD on KIT [2, 4]: IN
Functional effect of P1-WD on LIMK1 [2, 4]: IN
Functional effect of P1-WD on MET [2, 4]: IN
Functional effect of P1-WD on PDGFRA [2, 4]: ACT
Functional effect of P1-WD on PDGFRB [2, 4]: IN
Functional effect of P1-WD on PRKCD [2, 4]: ACT
Functional effect of P1-WD on SHC1 [2, 4]: IN
Functional effect of P1-WD on STAT1 [2, 4]: ACT
Functional effect of P1-WD on STAT2 [2, 4]: ACT
Functional effect of P1-WD on STAT3 [2, 4]: ACT
Functional effect of P1-WD on STAT5A [2, 4]: ACT
Functional effect of P1-WD on VCL [2, 4]: IN
Functional effect of P1-WD on INSR [2, 5]: ACT/ACT
Functional effect of P1-WD on PXN [2, 5]: ACT/ACT
Functional effect of P1-WD on SRC [2, 5]: IN/IN
Functional effect of P1-WD on ZAP70 [2, 5]: ACT/ACT
Functional effect of P1-WD on PTK2 ([2]; putative, inferred from literature data-mining, per p-Site Y397/Y577/Y576/Y861, cell wraps to r32 (/IN)): ACT/IN/ACT
Functional effect of P1-WD on EGFR ([2]; putative, inferred from literature data-mining, per p-Site Y1068/Y1148/Y1173): IN/IN/ACT
